Structures can show the parent of a compound that is named as a salt. Marks after values point to notes of the source that are not given here.
Legend:
Type in all cases: physicochemical
[1] = Hygroscopicity by DVS at 25° C.
Experimental: DVS was measured via a SMS (Surface Measurement Systems) DVS Intrinsic. The relative humidity at 25° C. were calibrated against deliquescence point of LiCl, Mg(NO3)2 and KCl.

[2] = Kinetic solubility in water and bio-relevant media (SGF, FaSSIF, FeSSIF) at 37° C.; conditions: for S: Solubility: calculated by freeform; for FC: Form change: residual solids by XRPD
Experimental: Add 4 mL of medium (H2O, SGF, FaSSIF and FeSSIF). • Rolled at 37° C. (˜25 rpm). Sampling at 1, 2, 4 and 24 hrs. • At each time-point, sampled 0.8 mL of solution or suspension into a centrifuge tube prior to centrifugation (12000 rpm, 37° C., 5 min) and filtration through 0.45 μm PTFE membrane. • Tested pH and concentration for the filtrate. Analyze residual solids by XRPD.
0.1 g of NaCl and 0.05 g of Triton X-100 were weighed into a 50-mL volumetric flask. Purified water was added to dissolve the solid. 67.5 μL HCl (38%, 12M) was added after the solid was dissolved completely. pH was then adjusted to 1.8 using HCl (1 M) or NaOH (1 M). Purified water was added to the volume.
(§1) 0.17 g of anhydrous NaH2PO4, 0.021 g of NaOH and 0.31 g of NaCl were weighed into a 50-mL volumetric flask. ˜48 mL purified water was added to dissolve the solid. pH was adjusted to 6.5 using 1M HCl or 1M NaOH. Purified water was then added to the volume. 0.11 g of SIF powder was added into the volumetric flask.
as §1, with “0.41 mL” for “0.17 g”, “acetic acid, 0.20” for “anhydrous NaH2PO4, 0.021”, “0.59” for “0.31”, “5.0” for “6.5”, “0.56” for “0.11”

[3] = Solid state stability at 25° C./60% RH and 40° C./75% RH for 1 week
Experimental: Each sample was added into a glass vial, sealed by parafilm with several holes, and kept under tested conditions. After one week, samples were taken for XRPD and HPLC purity test.

Structure (SMILES): N#Cc1ccc(COc2cccc(C3CCN(Cc4nc5ccc(C(=O)O)cc5n4Cc4cncs4)CC3)n2)c(F)c1 [Tris salt Type C]
- water uptake (DVS) ([1]; 25° C./80% RH): 1.44%
- hygroscopicity ([1]; DVS, 25° C.): slightly hygroscopic
- Water uptake at 25° C./80% RH ([1]; DVS, 25° C./80% RH): 1.44 wt %
- For change after DVS ([1]; XRPD after DVS test): No
- form change after DVS test (XRPD) ([1]; after DVS test): no form change
- S: Solubility ([2]; FaSSIF, 37° C., 1 hr): 0.16 mg/mL
- FC: Form change ([2]; FaSSIF, 37° C., 1 hr): Yes
- S: Solubility ([2]; FaSSIF, 37° C., 2 hrs): 0.29 mg/mL
- FC: Form change ([2]; FaSSIF, 37° C., 2 hrs): Yes
- S: Solubility ([2]; FaSSIF, 37° C., 4 hrs): 0.28 mg/mL
- FC: Form change ([2]; FaSSIF, 37° C., 4 hrs): Yes
- S: Solubility ([2]; FaSSIF, 37° C., 24 hrs): 0.04 mg/mL
- FC: Form change ([2]; FaSSIF, 37° C., 24 hrs): Yes
- S: Solubility ([2]; FeSSIF, 37° C., 1 hr): 0.17 mg/mL
- FC: Form change ([2]; FeSSIF, 37° C., 1 hr): No
- S: Solubility ([2]; FeSSIF, 37° C., 2 hrs): 0.13 mg/mL
- FC: Form change ([2]; FeSSIF, 37° C., 2 hrs): No
- S: Solubility ([2]; FeSSIF, 37° C., 4 hrs): 0.02* mg/mL
- FC: Form change ([2]; FeSSIF, 37° C., 4 hrs): No
- FC: Form change ([2]; FeSSIF, 37° C., 24 hrs): Yes
- solubility at 24 h ([2]; FeSSIF, 37 °C, pH 5, fessif, thermodynamic from solid, FeSSIF, 37° C., at 24 hrs, read-out: solubility in FeSSIF): 140 µg/mL
- S: Solubility ([2]; H2O, 37° C., 1 hr): 0.46 mg/mL
- FC: Form change ([2]; H2O, 37° C., 1 hr): No
- S: Solubility ([2]; H2O, 37° C., 2 hrs): 0.59 mg/mL
- FC: Form change ([2]; H2O, 37° C., 2 hrs): Yes
- S: Solubility ([2]; H2O, 37° C., 4 hrs): 2.5 mg/mL
- FC: Form change ([2]; H2O, 37° C., 4 hrs): Yes
- S: Solubility ([2]; H2O, 37° C., 24 hrs): 0.99 mg/mL
- FC: Form change ([2]; H2O, 37° C., 24 hrs): Yes
- S: Solubility ([2]; SGF, 37° C., 1 hr): 0.15 mg/mL
- FC: Form change ([2]; SGF, 37° C., 1 hr): No
- S: Solubility ([2]; SGF, 37° C., 2 hrs): 0.03* mg/mL
- FC: Form change ([2]; SGF, 37° C., 2 hrs): No
- S: Solubility ([2]; SGF, 37° C., 4 hrs): 0.04* mg/mL
- FC: Form change ([2]; SGF, 37° C., 4 hrs): Yes
- S: Solubility ([2]; SGF, 37° C., 24 hrs): 0.17 mg/mL
- FC: Form change ([2]; SGF, 37° C., 24 hrs): Yes
- form change of residual solids (XRPD) after solubility test ([2]; all the media (H2O, SGF, FaSSIF, FeSSIF), after 24 hrs): form change was observed
- Kinetic Solubility, 24-h solubility ([2]; in FeSSIF, 24 h, comparison among selected salts and Freeform Type C): 2) In FeSSIF, the 24-h solubility of Tris salt Type C was higher.
- HPLC peak Area, RRT 0.70 ([3]; 25° C./60% RH, 1 week): 0.06%
- HPLC peak Area, RRT 0.79 ([3]; 25° C./60% RH, 1 week): 0.23%
- HPLC peak Area, RRT 0.80 ([3]; 25° C./60% RH, 1 week): 0.05%
- HPLC peak Area, RRT 0.85 ([3]; 25° C./60% RH, 1 week): 0.07%
- HPLC peak Area, RRT 0.93 ([3]; 25° C./60% RH, 1 week): 0.09%
- Form change ([3]; 25° C./60% RH/Open/1 week): No
- Purity ([3]; 25° C./60% RH/Open/1 week): 96.76 Area %
- solid-state stability: form change and purity decrease ([3]; 25° C./60% RH/open and 40° C./75% RH/open, 1 week): no form change or significant purity decrease
- HPLC peak Area, RRT 0.70 ([3]; 40° C./75% RH, 1 week): 0.05%
- HPLC peak Area, RRT 0.79 ([3]; 40° C./75% RH, 1 week): 0.25%
- HPLC peak Area, RRT 0.80 ([3]; 40° C./75% RH, 1 week): 0.05%
- HPLC peak Area, RRT 0.85 ([3]; 40° C./75% RH, 1 week): <0.05%
- HPLC peak Area, RRT 0.93 ([3]; 40° C./75% RH, 1 week): 0.09%
- HPLC peak Area, RRT 0.99 ([3]; 40° C./75% RH, 1 week): <0.05%
- HPLC peak Area, RRT 1.12 ([3]; 40° C./75% RH, 1 week): 0.05%
- Form change ([3]; 40° C./75% RH/Open/1 week): No
- Purity ([3]; 40° C./75% RH/Open/1 week): 96.82 Area %
- HPLC peak Area, RRT 0.70 ([3]; Initial): 0.05%
- HPLC peak Area, RRT 0.79 ([3]; Initial): 0.21%
- HPLC peak Area, RRT 0.80 ([3]; Initial): 0.05%
- HPLC peak Area, RRT 0.85 ([3]; Initial): 0.08%
- HPLC peak Area, RRT 0.93 ([3]; Initial): 0.09%
- HPLC peak Area, RRT 1.12 ([3]; Initial): 0.06%
- Purity ([3]; Initial): 96.55 Area %
